According to EP0450065A1, “ANTIVIRAL AGENT” (priority 1988, dated 1990):
Where “and” joins values, the source holds several entries; their conditions need not be identical. Equal entries are not always repeated.

Key:
Assay type in all cases: cell-based
[1] = tested on: herpes simplex virus type 1 (HF strain); test: Control of CPE (cytopathic effect) manifestation in vero cells; parameters: key to Cytopathic effect [CPE] (3days) Average / Cytopathic effect [CPE] (5days) Average / Cytopathic effect [CPE] (6days) Average: CPE score: 0 none, 0.5 minute spots, 1 = 25%, 2 = 50%, 3 = ≥75% cells; key to Cytopathic effect [CPE] (3days) △CPE / Cytopathic effect [CPE] (5days) △CPE / Cytopathic effect [CPE] (3days) ΔCPE / Cytopathic effect [CPE] (6days) ΔCPE: ΔCPE = difference of average CPE score (0–3 scale) from control; conditions: for Cytopathic effect [CPE] (3days) △CPE / Cytopathic effect [CPE] (5days) △CPE / Cytopathic effect [CPE] (3days) ΔCPE / Cytopathic effect [CPE] (6days) ΔCPE: difference from control
Procedure: (§1) In vitro antiviral activity of Compound A against herpes simplex virus type 1 (HF strain) Compound A was tested for antiviral effect by the following two methods.
(§2) Vero cells cultured and grown in a monolayer on microplates to test for cytopathic effect due to viral infection, with solutions of Compound A diluted to varying ratios and solutions of virus diluted to varying ratios added severally thereto in a volume of 0.1 ml, were cultured under the conditions of 5% CO₂ and 37°C and were examined for CPE manifestation under a microscope. The observation was continued for five to six days.
(§3) The degree of CPE brought about by viral infection was rated on the five-point scale, wherein 3 stands for CPE observed on not less than 75% of cultured cells, 2 for CPE observed on 50% of cultured cells, 1 for CPE observed on 25% of cultured cells, 0.5 for occurrence of one to two extremely minute DPE spots, and 0 for perfect absence of recognizable CPE. The CPE scores obtained at the four holes in each microplate were averaged and the difference of the average from the average obtained in the control (omitting the treatment with a chemical) was reported as ΔCPE.
(§4) In vitro antiviral effect of Compound A against herpes simplex virus type 1 (HF strain) The test was carried out by following the procedure of Example 3.

[2] = tested on: herpes simplex virus type 1 (HF strain); test: 50% Tissue culture infective dose (TCID50), Read-Munch method, negative logarithm of virus dilution; conditions: for Cytopathic effect [CPE] (3days) △TCID50 / Cytopathic effect [CPE] (5days) △TCID50 / Cytopathic effect [CPE] (3days) ΔTCID50 / Cytopathic effect [CPE] (6days) ΔTCID50: difference from control
Procedure: as §1
(§5) The amount of virus infecting 50% of tissues (TCID₅₀) was determined by the Read-Munch method and expressed in negative logarithm of the maximum radio of dilution of virus. The difference of the amount thus determined from the amount found in the control (omitting the treatment with a chemical) was reported as ΔTCID₅₀. A sample whose ΔCPE's found on the last day of observation and on each of the days spent for the observation exceeded 1.0 was evaluated as effective.
as §4

[3] = tested on: herpes simplex virus type 2 (169 strain); test: as above; parameters: key to Cytopathic effect [CPE] (5days) △TCID50 / Cytopathic effect [CPE] (6days) △TCID50 / Cytopathic effect [CPE] (3days) △TCID50: difference in -log TCID50 from untreated control; key to Cytopathic effect [CPE] (5days) TCID50 / Cytopathic effect [CPE] (3days) TCID50 / Cytopathic effect [CPE] (6days) TCID50: negative log of maximum virus dilution infecting 50% of tissues; conditions: HSV-2 (169); for Cytopathic effect [CPE] (3days) △TCID50 / Cytopathic effect [CPE] (5days) △TCID50 / Cytopathic effect [CPE] (6days) △TCID50: difference from control
Procedure: as §5
In vitro antiviral activity of Compound A against herpes simplex virus type 2 (169 strain) The test was carried out by following the procedure of Example 3.

[4] = tested on: herpes simplex virus type 1 (KOS strain); test: Control of CPE (cytopathic effect) manifestation in vero cells; conditions: HSV-1 (KOS), Example 7; for Cytopathic effect [CPE] (3days) △CPE / Cytopathic effect [CPE] (5days) △CPE: difference from control
Procedure: as §2, §3
(§6) Antiviral activity of Compound A and Compound B against herpes simplex virus type 1 (KOS strain) The test was carried out by following the procedure of Example 3.

[5] = tested on: herpes simplex virus type 1 (KOS strain); test: 50% Tissue culture infective dose (TCID50), Read-Munch method, negative logarithm of virus dilution; parameters: key to Cytopathic effect [CPE] (5days) TCID50 / Cytopathic effect [CPE] (3days) TCID50: TCID50 as negative log of maximum virus dilution ratio; key to Cytopathic effect [CPE] (5days) △TCID50 / Cytopathic effect [CPE] (3days) △TCID50: difference from control TCID50, in negative log of virus dilution; conditions: HSV-1 (KOS), Example 7; for Cytopathic effect [CPE] (3days) △TCID50 / Cytopathic effect [CPE] (5days) △TCID50: difference from control
Procedure: as §5, §6

[6] = tested on: herpes simplex virus type 1 (KOS strain); test: One-step growth of virus, plaque assay with vero cells; conditions: for Intracellular virus Average / Intracellular virus Control ratio % / Intracellular virus Control ratio -logT/C: 24 hours
Procedure: Antiviral activity of Compound A and Compound B against one-step growth of herpes simplex virus type 1 (KOS strain) Cells grown in a monolayer, with a sample of a given compound diluted in a varying ratio added, were pretreated for 15 minutes. Then, the pretreated cells were infected with the herpes simplex virus type 1 (KOS strain) at an infecting ratio of 0.25 and left standing for 24 hours. At the end of the standing, the intracellular and extracellular amounts of virus were determined by the plaque assay with vero cells.

[7] = 10 μg/ml, HSV-1 (HF), Example 3
[8] = 20 μg/ml, HSV-1 (HF), Example 3
[9] = 50 μg/ml, HSV-1 (HF), Example 3
[10] = 100 μg/ml, HSV-1 (HF strain), Example 5
[11] = 100 μg/ml, HSV-1 (HF), Example 3
[12] = 200 μg/ml, HSV-1 (HF strain), Example 5

## K₅BW₁₂O₄₀.15H₂O [Compound A]
[1]; 5 μg/ml, HSV-1 (HF), Example 3
  Cytopathic effect [CPE] (3days) Average: 1.25
  Cytopathic effect [CPE] (5days) Average: 1.75
  Cytopathic effect [CPE] (3days) △CPE: 0.25
  Cytopathic effect [CPE] (5days) △CPE: 0
[1]; [7]
  Cytopathic effect [CPE] (3days) Average: 1.25
  Cytopathic effect [CPE] (5days) Average: 1.25
  Cytopathic effect [CPE] (3days) △CPE: 0.25
  Cytopathic effect [CPE] (5days) △CPE: 0.5
[1]; [8]
  Cytopathic effect [CPE] (3days) Average: 1.25
  Cytopathic effect [CPE] (5days) Average: 1.5
  Cytopathic effect [CPE] (3days) △CPE: 0.25
  Cytopathic effect [CPE] (5days) △CPE: 0.25
[1]; [9]
  Cytopathic effect [CPE] (3days) Average: 1.5
  Cytopathic effect [CPE] (5days) Average: 2.0
  Cytopathic effect [CPE] (3days) △CPE: 0
  Cytopathic effect [CPE] (5days) △CPE: 0.25
[1]; [10]
  Cytopathic effect [CPE] (3days) Average: 0.125
  Cytopathic effect [CPE] (6days) Average: 0.5
  Cytopathic effect [CPE] (3days) ΔCPE: 2.625
  Cytopathic effect [CPE] (6days) ΔCPE: 2.5
[1]; [11]
  Cytopathic effect [CPE] (3days) Average: 0.75
  Cytopathic effect [CPE] (5days) Average: 1.0
  Cytopathic effect [CPE] (3days) △CPE: 0.375
  Cytopathic effect [CPE] (5days) △CPE: 0.75
[1]; [12]
  Cytopathic effect [CPE] (3days) Average: 0
  Cytopathic effect [CPE] (6days) Average: 0
  Cytopathic effect [CPE] (3days) ΔCPE: 2.75
  Cytopathic effect [CPE] (6days) ΔCPE: 3.0
[2]; 5 μg/ml, HSV-1 (HF), Example 3
  Cytopathic effect [CPE] (3days) TCID50: 5.5
  Cytopathic effect [CPE] (5days) TCID50: 5.7
  Cytopathic effect [CPE] (3days) △TCID50: 0.5
  Cytopathic effect [CPE] (5days) △TCID50: 0.3
[2]; [7]
  Cytopathic effect [CPE] (3days) TCID50: 5.7
  Cytopathic effect [CPE] (5days) TCID50: 5.7
  Cytopathic effect [CPE] (3days) △TCID50: 0.3
  Cytopathic effect [CPE] (5days) △TCID50: 0.3
[2]; [8]
  Cytopathic effect [CPE] (3days) TCID50: 5.7
  Cytopathic effect [CPE] (5days) TCID50: 5.7
  Cytopathic effect [CPE] (3days) △TCID50: 0.3
  Cytopathic effect [CPE] (5days) △TCID50: 0.3
[2]; [9]
  Cytopathic effect [CPE] (3days) TCID50: 5.7
  Cytopathic effect [CPE] (5days) TCID50: 5.7
  Cytopathic effect [CPE] (3days) △TCID50: 0.3
  Cytopathic effect [CPE] (5days) △TCID50: 0.3
[2]; [10]
  Cytopathic effect [CPE] (3days) TCID50: 4.7
  Cytopathic effect [CPE] (6days) TCID50: 5.0
  Cytopathic effect [CPE] (3days) ΔTCID50: 1.6
  Cytopathic effect [CPE] (6days) ΔTCID50: 1.3
[2]; [11]
  Cytopathic effect [CPE] (3days) TCID50: 5.3
  Cytopathic effect [CPE] (5days) TCID50: 5.3
  Cytopathic effect [CPE] (3days) △TCID50: 0.7
  Cytopathic effect [CPE] (5days) △TCID50: 0.3
[2]; [12]
  Cytopathic effect [CPE] (3days) TCID50: <3.5
  Cytopathic effect [CPE] (6days) TCID50: <3.5
  Cytopathic effect [CPE] (3days) ΔTCID50: >2.8
  Cytopathic effect [CPE] (6days) ΔTCID50: > 2.8 and >2.5
[2]; varying concentrations of from 5 to 100 µg/ml, fifth day of observation, HSV-1 (HF), Example 3
  ΔTCID₅₀: 0.3
[3]; 5 μg/ml, Example 4
  Cytopathic effect [CPE] (3days) TCID50: 6.5
  Cytopathic effect [CPE] (5days) TCID50: 6.7
  Cytopathic effect [CPE] (3days) △TCID50: 0
  Cytopathic effect [CPE] (5days) △TCID50: 0.2
[3]; 10 μg/ml, Example 4
  Cytopathic effect [CPE] (3days) TCID50: 6.3
  Cytopathic effect [CPE] (5days) TCID50: 6.3
  Cytopathic effect [CPE] (3days) △TCID50: 0.2
  Cytopathic effect [CPE] (5days) △TCID50: 0.2
[3]; 20 μg/ml, Example 4
  Cytopathic effect [CPE] (3days) TCID50: 6.5
  Cytopathic effect [CPE] (5days) TCID50: 6.2
  Cytopathic effect [CPE] (3days) △TCID50: 0
  Cytopathic effect [CPE] (5days) △TCID50: 0.3
[3]; 50 μg/ml, Example 4
  Cytopathic effect [CPE] (3days) TCID50: 5.5
  Cytopathic effect [CPE] (5days) TCID50: 5.5
  Cytopathic effect [CPE] (3days) △TCID50: 1.0
  Cytopathic effect [CPE] (5days) △TCID50: 1.0
[3]; 100 μg/ml, Example 4
  Cytopathic effect [CPE] (3days) TCID50: 3.5
  Cytopathic effect [CPE] (5days) TCID50: 3.5
  Cytopathic effect [CPE] (3days) △TCID50: 3.0
  Cytopathic effect [CPE] (5days) △TCID50: 3.0
[3]; 100 μg/ml, Example 6
  Cytopathic effect [CPE] (3days) TCID50: < 3.5
  Cytopathic effect [CPE] (6days) TCID50: < 3.5
  Cytopathic effect [CPE] (3days) △TCID50: > 3.2
  Cytopathic effect [CPE] (6days) △TCID50: > 3.2
[3]; 200 μg/ml, Example 6
  Cytopathic effect [CPE] (3days) TCID50: < 3.5
  Cytopathic effect [CPE] (6days) TCID50: < 3.5
  Cytopathic effect [CPE] (3days) △TCID50: > 3.2
  Cytopathic effect [CPE] (6days) △TCID50: > 3.2
[4]; 100 μg/ml
  Cytopathic effect [CPE] (3days) Average: 0
  Cytopathic effect [CPE] (5days) Average: 0
  Cytopathic effect [CPE] (3days) △CPE: 2.0
  Cytopathic effect [CPE] (5days) △CPE: 3.0
[4]; 200 μg/ml
  Cytopathic effect [CPE] (3days) Average: 0
  Cytopathic effect [CPE] (5days) Average: 0
  Cytopathic effect [CPE] (3days) △CPE: 2.0
  Cytopathic effect [CPE] (5days) △CPE: 3.0
[5]; 100 μg/ml
  Cytopathic effect [CPE] (3days) TCID50: 3.5
  Cytopathic effect [CPE] (5days) TCID50: 3.5
  Cytopathic effect [CPE] (3days) △TCID50: 2.0
  Cytopathic effect [CPE] (5days) △TCID50: 2.5
[5]; 200 μg/ml
  Cytopathic effect [CPE] (3days) TCID50: 3.5
  Cytopathic effect [CPE] (5days) TCID50: 3.5
  Cytopathic effect [CPE] (3days) △TCID50: 2.0
  Cytopathic effect [CPE] (5days) △TCID50: 2.5
[6]; 50 μg/ml, extracellular virus
  Intracellular virus Average: 7.13×10^5 /dish
  Intracellular virus Control ratio %: 97.6%
  Intracellular virus Control ratio -logT/C: 1.623
[6]; 50 μg/ml
  Intracellular virus Average: 1.34×10^6 /dish
  Intracellular virus Control ratio %: 99.7%
  Intracellular virus Control ratio -logT/C: 2.482
[6]; 100 μg/ml, extracellular virus
  Intracellular virus Average: 8.38×10^4 /dish
  Intracellular virus Control ratio %: 99.7%
  Intracellular virus Control ratio -logT/C: 2.554
[6]; 100 μg/ml
  Intracellular virus Average: 1.99×10^6 /dish
  Intracellular virus Control ratio -logT/C: 7.211
[6]; 100 μg/ml, 1440 min
  Intracellular virus Control ratio %: >99.9%
[6]; 200 μg/ml, extracellular virus
  Intracellular virus Control ratio -logT/C: 5.778
[6]; 200 μg/ml, extracellular virus, 1440 min
  Intracellular virus Control ratio %: >99.9%
[6]; 200 μg/ml
  Intracellular virus Control ratio -logT/C: > 7.211
[6]; 200 μg/ml, 1440 min
  Intracellular virus Control ratio %: >99.9%
[6]; concentration not given, 1440 min
  control of the intracellular and extracellular viruses in the one-step growth: not less than 99.9%
